Columns and labels:
[1] = DDAVP permeation across Calu-3 cells on Transwell filters; assay type: in vitro ADME, human; settings: human
Excerpt: (§1) Papp values are labeled on top of the bars.
(§2) Inclusion of LPC further boosted the transport of DDAVP.

[2] = Intra-nasal DADLE absorption in rabbits; assay type: in vivo, rabbit; settings: DADLE 1 mg/kg intra-nasal via syringe microsprayer
Excerpt: Intra-nasal delivery of the model pentapepdide DADLE in water, C971P, LPC or C971P/LPC formulation was studied in rabbits. […] The C971P/LPC formulation enhanced DADLE absorption by >50% compared to LPC alone.

Calu-3 cells [3] = assay: Alamar Blue acute cytotoxicity assay; assay type: cell-based, human
Excerpt: FIG. 2 depicts an Alamar Blue Assay—Black bar indicates the % of the cell survival after 2 hrs treatment of LPC at 0-0.25%; gray bar indicates the combination of LPC with 0.5% of C971P.
This assay is based on the ability of live cells to enzymatically reduce Alamar blue dye which indicates the relative percentage of cells that survive the exposure to the various treatments. Calu-3 cells exposed to buffer for 2 hr were used as the positive control with 100% cell survival.

Calu-3 cells [4] = assay: TEER measurement (cell integrity and reversibility); assay type: cell-based, human; settings: for TEER after 2 hr (% initial): Phosphatidylcholine (Lecithin) Treatment
Excerpt: The asterisk (delete scatters with) (*) represent (delete marker present) those samples where TEER recovered to the original level within 12 hrs after washout of the treatment.
Transepithelial electrical resistance (TEER) measures the integrity of the epithelial barrier. […] Return of the TEER values to initial levels indicates recovery to baseline barrier properties. TEER measurements were done in confluent highly resistant Calu-3 cells cultured in Transwell filters with handheld STX-2 electrodes connected to EVOM Voltohmmeter. […] After the removal of apical treatment, TEER recovered to the original values.

Calu-3 cells [5] = assay: DDAVP permeation across Calu-3 cells on Transwell filters; assay type: in vitro ADME, human; settings: for DDAVP Permeability: Phosphatidylcholine (Lecithin) Treatment
Excerpt: as §1, §2

Molecule: NC(=O)CC[C@@H]1NC(=O)[C@H](Cc2ccccc2)NC(=O)[C@H](Cc2ccc(O)cc2)NC(=O)CCSSC[C@@H](C(=O)N2CCC[C@H]2C(=O)N[C@H](CCCN=C(N)N)C(=O)NCC(N)=O)NC(=O)[C@H](CC(N)=O)NC1=O [DDAVP, 1 deamino-8-D-arginin-vasopressin]
- Papp A→B [1]: 0.04 ± 0.003 ×10⁻⁶ cm/s

Molecule: L-α-lysophosphatidylcholine [LPC]
- DADLE exposure relative to water control [2]: 2.4 times
- cell survival (Calu-3 cells [3]; 0.05% LPC, 2 hr, without or with 0.5% C971P): About 82%
- cell survival (Calu-3 cells [3]; 0.1% LPC, 2 hr, without or with 0.5% C971P): 41%
- cell survival, result in words (Calu-3 cells [3]; LPC 0-0.25%, 2 hr, without or with 0.5% C971P): dose-dependent reduction in survival
- change in TEER on treatment (Calu-3 cells [4]; 2 hours of treatment): dramatic drop in TEER

Molecule: CCCCCCCCCC(=O)[O-].[Na+] [sodium caprate]
- effect of Carbopol 971P on acute cytotoxicity of the enhancer (Calu-3 cells [3]; Alamar Blue cytotoxicity assay in Calu-3 cells): failed to reduce the acute cytotoxicity

Molecule: Phosphatidylcholine [Phosphatidylcholine (Lecithin)]
- TEER after 2 hr (% initial) (Calu-3 cells [4]; 1 mM): No change
- TEER after 2 hr (% initial) (Calu-3 cells [4]; 2 mM): No change
- TEER after 2 hr (% initial) (Calu-3 cells [4]; 5 mM): No change
- DDAVP permeability enhancement and TEER drop, result in words (Calu-3 cells [5]; Calu-3 cells, TEER 2 hr after exposure): failed to show any measurable enhancement or TEER drop
- DDAVP Permeability (Calu-3 cells [5]; 1 mM): 0.045 ± 0.003 ×10⁻⁶ cm/s
- DDAVP Permeability (Calu-3 cells [5]; 2 mM): 0.044 ± 0.003 ×10⁻⁶ cm/s
- DDAVP Permeability (Calu-3 cells [5]; 5 mM): 0.044 ± 0.004 ×10⁻⁶ cm/s

— patent US20120053130A1, “COMPOSITION FOR ENHANCING ABSORPTION OF A DRUG AND METHOD” (Bristol-Myers Squibb Company, priority 2010, published 2012)
